This is an account of results in patent US12584896B2, “Process for quantification of metal amino acid chelates in solutions and solids” (Premex, Inc., priority 2018, dated 2026).

Molecules are shown by their SMILES.

What is called pKa is the pH at which an ionisable group is half protonated. High values mean a weaker acid or stronger base, low ones a stronger acid or weaker base.

The series is described as follows: pKa's of phytic acid (ionization of phosphate groups). In kind it is physicochemical. The text has this: A liquid sample was reacted with phytic acid. The reaction between the compounds and the phytic acid was at a pH of 3.0. Phytic acid ionization began via phosphates group in the following order: (a) P1, and P3 at a pH of from about 1.5 to about 2.0; (b) P4 and P6 at a pH of from about 2.0 to about 2.5; (c) P2 and at a pH of about 2 .5; and (d) P5 at a pH of from about 3.0 to about 5.0 (see FIGS. 1 and 2).

Regarding `O=P(O)(O)O[C@H]1[C@H](OP(=O)(O)O)[C@@H](OP(=O)(O)O)[C@H](OP(=O)(O)O)[C@@H](OP(=O)(O)O)[C@H]1OP(=O)(O)O` [phytic acid], the pKa stood at 9.3.
